The source of these data is patent publication US8778966B2, “Quinolinone derivatives as PARP and tank inhibitors” (Janssen Pharmaceutica, NV, priority 2007, dated 2014).

The assay concerns the target T1, TANK-2 enzyme (Homo sapiens, UniProt Q9H2K2).
T1 construct: made in house
T1 sequence (Q9H2K2 1-1166): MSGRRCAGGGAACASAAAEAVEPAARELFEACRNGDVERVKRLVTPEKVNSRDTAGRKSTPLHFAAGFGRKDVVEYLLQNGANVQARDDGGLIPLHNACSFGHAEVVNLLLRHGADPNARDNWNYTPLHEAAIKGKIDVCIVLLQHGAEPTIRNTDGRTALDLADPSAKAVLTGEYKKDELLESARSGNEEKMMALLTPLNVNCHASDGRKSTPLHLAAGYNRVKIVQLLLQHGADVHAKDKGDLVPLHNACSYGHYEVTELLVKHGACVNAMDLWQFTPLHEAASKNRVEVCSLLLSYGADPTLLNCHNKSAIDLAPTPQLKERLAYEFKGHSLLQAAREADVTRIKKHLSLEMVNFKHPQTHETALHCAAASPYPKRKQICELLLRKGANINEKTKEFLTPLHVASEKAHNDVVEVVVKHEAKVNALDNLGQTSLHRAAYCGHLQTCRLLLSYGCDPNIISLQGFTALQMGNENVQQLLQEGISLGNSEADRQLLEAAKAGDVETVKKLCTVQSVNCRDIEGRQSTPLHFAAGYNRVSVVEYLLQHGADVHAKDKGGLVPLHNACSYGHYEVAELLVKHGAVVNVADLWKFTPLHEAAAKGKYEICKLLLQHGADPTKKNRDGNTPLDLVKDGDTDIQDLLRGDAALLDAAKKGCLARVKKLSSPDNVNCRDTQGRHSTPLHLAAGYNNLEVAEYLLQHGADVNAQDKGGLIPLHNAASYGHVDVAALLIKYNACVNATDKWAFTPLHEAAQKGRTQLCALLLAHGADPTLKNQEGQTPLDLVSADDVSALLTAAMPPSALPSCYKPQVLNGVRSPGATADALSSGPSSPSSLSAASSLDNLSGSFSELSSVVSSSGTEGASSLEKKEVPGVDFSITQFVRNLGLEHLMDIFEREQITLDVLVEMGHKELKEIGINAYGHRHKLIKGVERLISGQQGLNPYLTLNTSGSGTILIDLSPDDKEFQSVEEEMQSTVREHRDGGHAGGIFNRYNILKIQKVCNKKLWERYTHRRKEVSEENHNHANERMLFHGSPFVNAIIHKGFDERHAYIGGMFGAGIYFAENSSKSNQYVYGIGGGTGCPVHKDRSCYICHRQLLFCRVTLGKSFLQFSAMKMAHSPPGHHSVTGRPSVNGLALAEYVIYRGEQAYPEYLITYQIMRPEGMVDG
Briefly: In vitro Scintillation Proximity Assay (SPA) for TANK-2 inhibitory activity. Format: biochemical. Particulars: read-out: in vitro SPA assay TANK-2 pIC50 (converted). The gist of the method: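 Results are pIC50 values, with IC50 interpolated linearly around 50% of blank-subtracted control cpm. They come from a scintillation proximity read of TANK-2 (8 μg/ml) self-modification with [3H]-NAD+/NAD, incubated 120 min at room temperature in pH 7.4 Tris buffer containing MgCl2 and DTT. Compounds were first screened at 10^−5 M.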

For the compound `CCc1cc2ccc(C(C)(C#N)Cc3cc(N(C)C)nc(C#N)n3)cc2[nH]c1=O` (centres unmarked) [Compound 317], the IC50 is 100 nM.

Take `CCc1cc2ccc(C(C)(C#N)Cc3nc(C#N)cc(N(C)C)n3)cc2[nH]c1=O` (centres unmarked) [Compound 318]: the IC50 is 126 nM.

With `CCc1cc2ccc(C(C)(C#N)Cc3cc(C#N)nc(C)n3)cc2[nH]c1=O` (centres unmarked) [Compound 319], the IC50 is 63.1 nM.

On to `CCc1cc2ccc(C(C)(C#N)Cc3cc(N(C)C)nc(N(C)C)n3)cc2[nH]c1=O` (centres unmarked) [Compound 320], for which the IC50 is 200 nM.

For the compound `CCc1cc2ccc(C(C)(C#N)Cc3cc(N(C)C)nc(C)n3)cc2[nH]c1=O` (centres unmarked) [Compound 322], the IC50 was 251 nM.

With `CCc1cc2ccc(C(C)(C#N)Cc3cc(Cl)nc(N(C)C)c3)cc2[nH]c1=O` (centres unmarked) [Compound 323], the IC50 is 251 nM.

As for `CCc1cc2ccc(C(C)(C#N)Cc3cc(C#N)nc(N(C)C)c3)cc2[nH]c1=O` (centres unmarked) [Compound 325], the IC50 is 63.1 nM.

For the compound `CCc1cc2ccc(C(C)(C#N)Cc3cccc(NC)n3)cc2[nH]c1=O` (centres unmarked) [Compound 339], the IC50 is 100 nM.

On to `CCc1cc2ccc(C(C)(C#N)Cc3ccc4c(c3)OC(F)(F)O4)cc2[nH]c1=O` (centres unmarked) [Compound 346], for which the IC50 is 501 nM.

As to `CCc1cc2ccc(C(C)(C#N)Cc3c4ccccc4nn3C)cc2[nH]c1=O` (centres unmarked) [Compound 347], the IC50 was 200 nM.

On to `CCc1cc2ccc(C(C)(C#N)Cc3cc(OC)nc(OC)c3)cc2[nH]c1=O` (centres unmarked) [Compound 350], for which the IC50 is 126 nM.

Take `CCc1cc2ccc(C(C)(C#N)Cc3cc(Cl)nc(OC)c3)cc2[nH]c1=O` (centres unmarked) [Compound 351]: the IC50 is 158 nM.

Take `CCc1cc2ccc(C(C)(C#N)Cc3cc(N(C)C)nc(OC)n3)cc2[nH]c1=O` (centres unmarked) [Compound 354]: the IC50 was 79.4 nM.

As to `CCc1cc2ccc(C(C)(C#N)Cc3nc(OC)cc(N(C)C)n3)cc2[nH]c1=O` (centres unmarked) [Compound 355], the IC50 is 158 nM.

In the case of `CCc1cc2ccc(C(C)(C#N)Cc3cc(Cl)nc(C)n3)cc2[nH]c1=O` (centres unmarked) [Compound 365], the IC50 was 79.4 nM.

`CCc1cc2ccc(C(C)(C#N)CN3CCC(c4ccccc4)CC3)cc2[nH]c1=O` (centres unmarked) [Compound 375]: the IC50 is 398 nM.

As to `CCc1cc2ccc(C(C)(C#N)CN3CCN(c4ccc(C#N)cn4)CC3)cc2[nH]c1=O` (centres unmarked) [Compound 377], the IC50 is 50.1 nM.

`CCc1cc2ccc(C(C)(C#N)Cc3cc(Br)cc4c3OCC4)cc2[nH]c1=O` (centres unmarked) [Compound 378]: the IC50 was 251 nM.

Regarding `CCc1cc2ccc(C(C)(C#N)Cc3cccc4[nH]ccc34)cc2[nH]c1=O` (centres unmarked) [Compound 379], the IC50 was 100 nM.

Consider `Cc1cc2ccc([C@](C)(C#N)[C@H]3CCc4ccccc43)cc2[nH]c1=O` [Compound 387], for which the IC50 is 2510 nM.

For the compound `Cc1cc2ccc(C(C)(C#N)C3CCc4ccccc43)cc2[nH]c1=O` (centres unmarked) [Compound 392], the IC50 was 1260 nM.

As for `Cc1cc2ccc(C(C)(C#N)C3CCCc4ccccc43)cc2[nH]c1=O` (centres unmarked) [Compound 404], the IC50 is 2000 nM.

With `Cc1cc2ccc(C(C)(C#N)Cc3cccc(/C=C/CCO)c3)cc2[nH]c1=O` (centres unmarked) [Compound 409], the IC50 was 1000 nM.
